Assays:
[1] = biological target: T1, rat adrenergic α1B receptor (Rattus norvegicus, UniProt P15823); test: Adrenergic α1B radioligand binding assay ([3H]Prozosin); conditions: compound at 0.1 μM; 0.25 nM [3H]Prozosin; Wistar Rat liver; read-out: Percent Inhibition of ligand binding, Adrenergic (0.1 μM) a1B
T1 construct: from tissue; host or cells: Wistar Rat liver
T1 sequence (P15823 1-515): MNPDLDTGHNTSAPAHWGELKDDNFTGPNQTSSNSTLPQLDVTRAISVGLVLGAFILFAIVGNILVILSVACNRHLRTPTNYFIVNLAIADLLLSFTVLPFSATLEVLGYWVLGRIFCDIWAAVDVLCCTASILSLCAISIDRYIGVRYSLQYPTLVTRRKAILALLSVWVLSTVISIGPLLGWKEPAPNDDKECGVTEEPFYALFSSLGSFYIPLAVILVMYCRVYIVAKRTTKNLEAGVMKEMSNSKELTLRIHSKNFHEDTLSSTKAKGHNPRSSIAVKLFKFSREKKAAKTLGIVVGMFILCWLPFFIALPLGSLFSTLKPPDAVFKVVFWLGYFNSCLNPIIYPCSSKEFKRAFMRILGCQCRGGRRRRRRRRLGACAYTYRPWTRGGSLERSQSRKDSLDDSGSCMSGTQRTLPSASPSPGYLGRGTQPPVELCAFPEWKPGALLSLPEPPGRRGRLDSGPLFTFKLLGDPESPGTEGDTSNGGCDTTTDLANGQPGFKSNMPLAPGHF
Experimental: To evaluate in radioligand binding assays the activity of compounds of the invention, rat adrenergic α1B receptor obtained from Wistar Rat liver (Garcia-S'ainz, J. A. et al., Biochem. Biophys. Res. Commun. 186:760, 1992; Michel A. D. et al., Br. J. Pharmacol. 98:883, 1989) in a modified Tris-HCl buffer (50 mM Tris-HCl buffer, pH 7.4, 0.5 mM EDTA) is used. Compounds of the invention are incubated with 0.25 nM [^3H]Prozosin for 60 min at 25° C. Non-specific binding is estimated in the presence of 10 μM phentolamine. Receptor proteins are filtered and washed, the filters are then counted to determine [^3H]Prozosin specifically bound. Compounds are screened at 1 μM or lower, using 1% DMSO as vehicle. Compounds of the invention are tested in this biochemical assay and percent inhibition of specific binding is determined.

[2] = biological target: T2, human recombinant histamine H2 receptor (Homo sapiens, UniProt P25021); test: Histamine H2 radioligand binding assay ([125I]Aminopotentidine); conditions: compound at 1 μM; 0.1 nM [125I]Aminopotentidine; receptor expressed in CHO-K1 cells
T2 construct: expressed in transfected cells; host or cells: Chinese hamster ovary (CHO) K1 cells
Experimental: To evaluate in radioligand binding assays the activity of compounds of the invention, human recombinant histamine H2 receptor expressed in Chinese hamster ovary (CHO) K1 cells (Ruat, M., Proc. Natl. Acad. Sci. USA. 87(5):1658, 1990) in a 50 mM Phosphate buffer, pH 7.4 was used. Compounds of the invention were incubated with 0.1 nM [^125I]Aminopotentidine for 120 min at 25° C. Non-specific binding was estimated in the presence of 3 μM Tiotidine. Receptor proteins were filtered and washed, the filters were then counted to determine [^125I]Aminopotentidine specifically bound. Compounds were screened at 1 μM or lower, using 1% DMSO as vehicle. Biochemical assay results are presented as the percent inhibition of specific binding in Table 2.

[3] = biological target: T3, human recombinant serotonin (5-Hydroxytryptamine) 5-HT2C receptor (Homo sapiens, UniProt P28335); test: Serotonin 5-HT2C radioligand binding assay ([3H]Mesulergine); conditions: 1 nM [3H]Mesulergine, CHO-K1 cells; for inhibition at 1 µM: compound at 1 μM, read-out: Percent Inhibition of ligand binding, Serotonin (1 μM) 5-HT2C; for inhibition at 0.1 µM: compound at 0.1 μM, read-out: Percent Inhibition of ligand binding, Serotonin (0.1 μM) 5-HT2C
T3 construct: expressed in transfected cells; host or cells: Chinese hamster ovary (CHO-K1) cells
T3 sequence (P28335 33-458): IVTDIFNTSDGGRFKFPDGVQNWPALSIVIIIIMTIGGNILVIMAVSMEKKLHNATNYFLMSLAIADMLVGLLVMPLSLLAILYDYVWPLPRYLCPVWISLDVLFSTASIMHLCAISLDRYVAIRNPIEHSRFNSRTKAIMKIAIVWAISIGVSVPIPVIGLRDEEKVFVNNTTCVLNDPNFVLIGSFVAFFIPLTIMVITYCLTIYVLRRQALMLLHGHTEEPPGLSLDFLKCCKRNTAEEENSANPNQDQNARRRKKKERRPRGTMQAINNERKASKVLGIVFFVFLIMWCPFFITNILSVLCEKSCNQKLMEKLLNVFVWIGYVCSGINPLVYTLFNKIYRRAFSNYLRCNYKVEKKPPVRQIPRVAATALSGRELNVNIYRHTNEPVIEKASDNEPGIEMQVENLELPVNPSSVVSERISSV
Experimental: Compounds of the invention were incubated with 1 nM [^3H]Mesulergine for 60 min at 25° C. Non-specific binding was estimated in the presence of 1 μM Mianserin. Receptor proteins were filtered and washed, the filters were then counted to determine [^3H]Mesulergine specifically bound. Compounds were screened at 1 μM or lower, using 1% DMSO as vehicle. Biochemical assay results are presented as the percent inhibition of specific binding in Table 4.

[4] = biological target: human recombinant serotonin (5-Hydroxytryptamine) 5-HT7 receptor (Homo sapiens, UniProt P34969); test: Serotonin 5-HT7 radioligand binding assay ([3H]LSD); conditions: 5.5 nM [3H]LSD, CHO cells; for inhibition at 1 µM: compound at 1 μM, read-out: Percent Inhibition of ligand binding, Serotonin (1 μM) 5-HT7; for inhibition at 0.1 µM: compound at 0.1 μM, read-out: Percent Inhibition of ligand binding, Serotonin (0.1 μM) 5-HT7
Experimental: Compounds of invention were incubated with 5.5 nM [^3H] Lysergic acid diethylamide (LSD) for 2 h at 25° C. […] Receptor proteins were filtered and washed, the filters were then counted to determine [^3H]LSD specifically bound. Compounds were screened at 1 μM or lower, using 1% DMSO as vehicle. Biochemical assay results are presented as the percent inhibition of specific binding in Table 4.

[5] = biological target: T4, human recombinant serotonin (5-Hydroxytryptamine) 5-HT5A receptor (Homo sapiens, UniProt P47898); test: Serotonin 5-HT5A radioligand binding assay ([3H]LSD); conditions: compound at 0.1 μM; 1.7 nM [3H]LSD; CHO-K1 cells; read-out: Percent Inhibition of ligand binding, Serotonin (0.1 μM) 5-HT5A
T4 construct: expressed in transfected cells; host or cells: Chinese hamster ovary (CHO-K1) cells
Experimental: Compounds of the invention were incubated with 1.7 nM [^3H]Lysergic acid diethylamide (LSD) for 60 min at 37° C. […] Receptor proteins were filtered and washed, the filters were then counted to determine [^3H]LSD specifically bound. Compounds were screened at 1 μM or lower, using 1% DMSO as vehicle. Compounds of the invention were tested in this biochemical assay and percent inhibition of specific binding was determined. Biochemical assay results are presented as the percent inhibition of specific binding in Table 4.

T4 sequence (P47898 whole entry): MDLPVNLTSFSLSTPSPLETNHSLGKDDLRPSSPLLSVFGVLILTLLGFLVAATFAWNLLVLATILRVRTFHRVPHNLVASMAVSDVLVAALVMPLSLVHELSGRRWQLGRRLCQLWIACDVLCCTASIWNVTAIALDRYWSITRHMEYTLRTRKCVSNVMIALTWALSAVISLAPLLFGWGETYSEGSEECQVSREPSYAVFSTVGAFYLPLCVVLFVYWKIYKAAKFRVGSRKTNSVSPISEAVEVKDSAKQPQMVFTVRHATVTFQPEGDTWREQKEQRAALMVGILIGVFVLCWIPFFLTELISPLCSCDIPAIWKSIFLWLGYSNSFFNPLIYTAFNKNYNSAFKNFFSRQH
human recombinant serotonin (5-Hydroxytryptamine) 5-HT7 receptor, sequence (P34969 whole entry): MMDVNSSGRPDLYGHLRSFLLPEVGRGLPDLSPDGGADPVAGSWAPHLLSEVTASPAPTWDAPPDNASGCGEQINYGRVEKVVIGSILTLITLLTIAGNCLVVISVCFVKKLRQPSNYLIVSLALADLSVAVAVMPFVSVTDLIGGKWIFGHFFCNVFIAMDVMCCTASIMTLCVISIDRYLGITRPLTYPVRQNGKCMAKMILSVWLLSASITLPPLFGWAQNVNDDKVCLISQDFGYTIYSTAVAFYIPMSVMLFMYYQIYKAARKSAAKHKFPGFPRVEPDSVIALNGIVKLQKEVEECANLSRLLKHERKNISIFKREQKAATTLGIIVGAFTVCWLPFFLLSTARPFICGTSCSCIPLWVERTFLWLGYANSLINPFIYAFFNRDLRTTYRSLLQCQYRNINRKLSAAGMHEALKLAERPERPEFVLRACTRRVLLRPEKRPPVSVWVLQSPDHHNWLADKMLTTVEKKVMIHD
T2 sequence (P25021 whole entry): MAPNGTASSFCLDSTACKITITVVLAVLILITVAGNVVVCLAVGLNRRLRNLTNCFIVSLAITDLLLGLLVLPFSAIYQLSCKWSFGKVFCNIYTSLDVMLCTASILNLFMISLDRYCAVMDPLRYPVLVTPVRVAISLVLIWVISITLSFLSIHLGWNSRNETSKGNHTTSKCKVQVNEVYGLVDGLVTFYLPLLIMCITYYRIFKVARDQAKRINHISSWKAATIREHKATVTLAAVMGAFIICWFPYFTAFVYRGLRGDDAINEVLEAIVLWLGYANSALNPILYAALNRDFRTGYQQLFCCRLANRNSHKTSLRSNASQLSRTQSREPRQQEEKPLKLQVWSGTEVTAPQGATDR

Compound | inhibition at 0.1 µM [1] [%] | inhibition at 1 µM [2] [%] | inhibition at 1 µM [3] [%] | other results
Cc1ccc2c(c1)c1c(n2CC(O)c2ccncc2)CCN(C)C1 (stereo not drawn) [Compound 1-8, 2-(2,8-dimethyl-3,4-dihydro-1H-pyrido[4,3-b]indol-5(2H)-yl)-1-(pyridin-4-yl)ethanol] | 54 |  |  | 
CN1CCc2c(c3cc(Cl)ccc3n2CC(O)c2ccncc2)C1 (stereo not drawn) [Compound 1-11, 2-(8-chloro-2-methyl-3,4-dihydro-1H-pyrido[4,3-b]indol-5(2H)-yl)-1-(pyridin-4-yl)ethanol] | 60 |  |  | 
CN1CCc2c(c3cc(Cl)c(Cl)cc3n2CC(C)(O)c2ccncc2)C1 (stereo not drawn) [Compound 1-17, 1-(7,8-dichloro-2-methyl-3,4-dihydro-1H-pyrido[4,3-b]indol-5(2H)-yl)-2-(pyridin-4-yl)propan-2-ol] | 55 |  |  | 
COc1ccc([C@](C)(O)Cn2c3c(c4cc(C)ccc42)CN(C)CC3)cc1 [Compound 1-20, (S)-1-(2,8-Dimethyl-3,4-dihydro-1H-pyrido[4,3-b]indol-5(2H)-yl)-2-(4-methoxyphenyl)propan-2-ol] | 63 |  |  | 
Cc1ccc2c(c1)c1c(n2CCc2ccc(C)nc2)CCN(CCC#N)C1 [Compound 1-34, 3-(8-methyl-5-(2-(6-methylpyridin-3-yl)ethyl)-3,4-dihydro-1H-pyrido[4,3-b]indol-2(5H)-yl)propanenitrile] |  | 0 | 16 | 
Cc1ccc2c(c1)c1c(n2CC(=O)c2ccccc2)CCN(C)C1 [Compound 1-35, 2-(2,8-dimethyl-3,4-dihydro-1H-pyrido[4,3-b]indol-5(2H)-yl)-1-phenylethanone] |  | 11 | 75 | 
CN1CCc2c(c3cc(Cl)ccc3n2CC(=O)c2ccccc2)C1 [Compound 1-36, 2-(8-chloro-2-methyl-3,4-dihydro-1H-pyrido[4,3-b]indol-5(2H)-yl)-1-phenylethanone] |  | 48 | 94 | 
CN1CCc2c(c3cc(Cl)ccc3n2CC(=O)c2ccc(F)cc2)C1 [Compound 1-37, 2-(8-chloro-2-methyl-3,4-dihydro-1H-pyrido[4,3-b]indol-5(2H)-yl)-1-(4-fluorophenyl)ethanone] |  | 80 | 97 | inhibition at 1 µM [4]: 73%
CN1CCc2c(c3cc(Cl)ccc3n2CC(=O)c2ccc(Cl)cc2)C1 [Compound 1-38, 2-(8-chloro-2-methyl-3,4-dihydro-1H-pyrido[4,3-b]indol-5(2H)-yl)-1-(4-chlorophenyl)ethanone] |  | 56 | 101 | inhibition at 1 µM [4]: 81%
Cc1ccc2c(c1)c1c(n2CC(=O)c2ccc(F)cc2)CCN(C)C1 [Compound 1-39, 2-(2,8-dimethyl-3,4-dihydro-1H-pyrido[4,3-b]indol-5(2H)-yl)-1-(4-fluorophenyl)ethanone] |  | 66 | 104 | inhibition at 1 µM [4]: 95%
Cc1ccc2c(c1)c1c(n2CCc2ccc(CCCN)nc2)CCN(C)C1 [Compound 1-40, 3-(5-(2-(2,8-dimethyl-3,4-dihydro-1H-pyrido[4,3-b]indol-5(2H)-yl)ethyl)pyridin-2-yl)propan-1-amine] |  | 18 | 91 | 
Cc1ccc2c(c1)c1c(n2CCc2ccc(C(F)(F)F)nc2)CCNC1 [Compound 1-41, 8-methyl-5-(2-(6-(trifluoromethyl)pyridin-3-yl)ethyl)-2,3,4,5-tetrahydro-1H-pyrido[4,3-b]indole] |  | 6 | 41 | inhibition at 1 µM [4]: 59%
Cc1ccc2c(c1)c1c(n2CCc2ccc(C)nc2)CCN(CCCO)C1 [Compound 1-42, 3-(8-methyl-5-(2-(6-methylpyridin-3-yl)ethyl)-3,4-dihydro-1H-pyrido[4,3-b]indole-2(5H)-yl)propan-1-ol] |  | 16 | 90 | inhibition at 1 µM [4]: 63%
Cc1ccc2c(c1)c1c(n2CC(C)c2ccncc2)CCN(C)C1 (stereo not drawn) [Compound 1-46, 2,8-dimethyl-5-(2-(pyridin-4-yl)propyl)-2,3,4,5-tetrahydro-1H-pyrido[4,3-b]indole] |  |  |  | inhibition at 0.1 µM [4]: 93%; inhibition at 0.1 µM [3]: 83%
Cc1ccc2c(c1)c1c(n2CC(C)(C)c2ccncc2)CCN(C)C1 [Compound 1-49, 2,8-dimethyl-5-(2-methyl-2-(pyridin-4-yl)propyl)-2,3,4,5-tetrahydro-1H-pyrido[4,3-b]indole] |  |  |  | inhibition at 0.1 µM [4]: 95%; inhibition at 0.1 µM [3]: 96%
CC[C@](O)(Cn1c2c(c3cc(C)ccc31)CN(C)CC2)c1ccc(F)cc1 [Compound 1-60, (R)-1-(2,8-Dimethyl-3,4-dihydro-1H-pyrido[4,3-b]indol-5(2H)-yl)-2-(4-fluorophenyl)butan-2-ol] | -2 |  |  | inhibition at 0.1 µM [4]: 16%; inhibition at 0.1 µM [5]: 26%; inhibition at 0.1 µM [3]: 67%
CCCC[C@](O)(Cn1c2c(c3cc(Cl)ccc31)CN(C)CC2)c1ccc(F)cc1 [Compound 1-61, (R)-1-(8-Chloro-2-methyl-3,4-dihydro-1H-pyrido[4,3-b]indol-5(2H)-yl)-2-(4-fluorophenyl)hexan-2-ol] | 0 |  |  | inhibition at 0.1 µM [4]: -12%; inhibition at 0.1 µM [5]: 5%; inhibition at 0.1 µM [3]: 88%
CC[C@@](O)(Cn1c2c(c3cc(C)ccc31)CN(C)CC2)c1ccncc1 [Compound 1-62, (S)-1-(2,8-Dimethyl-3,4-dihydro-1H-pyrido[4,3-b]indol-5(2H)-yl)-2-(pyridine-4-yl)butan-2-ol] |  |  |  | inhibition at 0.1 µM [4]: 30%; inhibition at 0.1 µM [5]: 6%; inhibition at 0.1 µM [3]: 33%

— patent publication US9255094B2, “Pyrido[4,3-B]indoles and methods of use” (Medivation Technologies, Inc., priority 2009, dated 2016)
